Experimental data: patent US9226934B2, “Anti-cancer drug” (THE UNIVERSITY OF TOKYO, priority 2008, dated 2016)

B1: MFG-E8: MFG-E8 recombinant protein (product of R&D Systems in Example 11) (protein, UniProt Q08431 24-387, looked up)
Lactadherin: LDICSKNPCHNGGLCEEISQEVRGDVFPSYTCTCLKGYAGNHCETKCVEPLGLENGNIANSQIAASSVRVTFLGLQHWVPELARLNRAGMVNAWTPSSNDDNPWIQVNLLRRMWVTGVVTQGASRLASHEYLKAFKVAYSLNGHEFDFIHDVNKKHKEFVGNWNKNAVHVNLFETPVEAQYVRLYPTSCHTACTLRFELLGCELNGCANPLGLKNNSIPDKQITASSSYKTWGLHLFSWNPSYARLDKQGNFNAWVAGSYGNDQWLQVDLGSSKEVTGIITQGARNFGSVQFVASYKVAYSNDSANWTEYQDPRTGSSKIFPGNWDNHSHKKNLFETPILARYVRILPVAWHNRIALRLELLGC

Legend:
[1] = tested on: MC 38, mouse colon carcinoma cells; assay: Subcutaneous tumor model of MC38 colon carcinoma cells in C57Bl/6 mice, tumor growth; type: in vivo; details: agent alone i.p. on day 10, 13, 16; compared with non-treated group; afterwards growth as in non-treated group
Experimental: (§1) The MC 38, mouse colon carcinoma cells or B16, melanoma cells were subcutaneously injected to the back of 6-week-old C57BI/6 mice (1×10^5 cells/mouse). After the tumor diameter (longer diameter) reached 5 mm (25 to 30 mm^2) (day 10), an anti-cancer agent and/or an anti-MFG-E8 antibody were/was intraperitoneally administered to each mouse on day 10, day 13, and day 16 according to any of the following protocols. The experiments according to each protocol were performed twice. The employed anti-MFG-E8 antibody was a blocking antibody commercially available from MBL. In protocols 1 to 4, MC38 was used, and B16 melanoma was used in protocol 5.
• Gemcitabine (GEM): 4 mg/kg • Gemcitabine (GEM): 1 mg/kg • Anti-MFG-E8 antibody: 1 mg/kg • Gemcitabine (GEM): 4 mg/kg+anti-MFG-E8 antibody: 1 mg/kg • Gemcitabine (GEM): 1 mg/kg+anti-MFG-E8 antibody: 1 mg/kg Protocol 2: • CPT-11: 1 mg/kg • 5-FU: 0.1 M • Anti-MFG-E8 antibody: 1 mg/kg • CPT-11: 1 mg/kg+anti-MFG-E8 antibody: 1 mg/kg • 5-FU: 0.1 M+anti-MFG-E8 antibody: 1 mg/kg Protocol 3: • Epidermal growth factor receptor tyrosine kinase 1 (EGFR-TK1): […] • Anti-vascular endothelial growth factor receptor-2 monoclonal antibody (α-VEGFR-2Ab): 40 mg/kg • Anti-MFG-E8 antibody: 1 mg/kg Protocol 4: • Irradiation (XRT): 3 Gy/day×5 • Anti-MFG-E8 antibody: 1 mg/kg Protocol 5: • Doxorubicin (Dox): 5 mg/kg • Etoposide (Etop): 2 mg/kg • Anti-MFG-E8 antibody: 1 mg/kg (Results)

B16, melanoma cells = assay: Subcutaneous tumor model of B16 melanoma cells in C57Bl/6 mice, tumor growth; type: in vivo, mouse; details: agent alone i.p. on day 10, 13, 16; compared with non-treated group; afterwards growth as in non-treated group
Experimental: as §1, with “5. […]” for “5.”

dendritic cells = assay: OVA-specific T cell activity in mixed culture with treated dendritic cells, intracellular IFN-γ and IL-10; type: cell-based, mouse; details: dendritic cells treated with MFG-E8 recombinant protein 100 μg/mL or anti-MFG-E8 antibody 20 μg/mL; 72 h; compared to control
From the text: The mechanisms of activation of dendritic cells and T cells through employment of the anti-MFG-E8 antibody and the anti-cancer agent, such activation having been observed in vivo, were further investigated in vitro by using a mixed culture system.
Specifically, ovalbumin (OVA) was employed as a model antigen. In a specific procedure, bone marrow cells were collected from DO11.10 (MHC class II-restricting OVA antigen transgenic mice), and differentiation to dendritic cells was induced with granulocyte-monocyte colony-stimulating factor (GM-CSF). Seven days after the initiation of the differentiation induction, the cells were treated with MFG-E8 recombinant protein (100 μg/mL) or anti-MFG-E8 antibody (20 μg/mL). Thereafter, on day 8, the thus-treated cells were pulsed with MHC class II OVA-restricting OVA peptide ([…]) or a negative control peptide (HSA) for six hours. The resultant cells were admixed with naive CD4+ positive T cells derived from syngeneic (Balb/c) mice in such an amount that the ratio of dendritic cells to CD4+ T cells was adjusted to 1:10, and the cell mixture was cultured in the presence of an anti-CD3 antibody (0.1 μg/mL). Seventy-two hours after, the activity of T cells was determined through flow cytometry, in terms of intracellular expression of IFN-γ and IL-10.

Dendritic cells (BMDCs) = assay: Cytokine concentrations of BMDC culture supernatant, ELISA; type: cell-based, mouse; details: recombinant MFG-E8 100 ng/mL or anti-MFG-E8 monoclonal antibody 20 μg/mL overnight
Experimental: Dendritic cells (BMDCs) were prepared through culturing myeloid progenitor cells for seven days in a GM-CSF containing medium, and treated overnight with recombinant MFG-E8 (100 ng/mL, product of R&D Systems), an anti-MFG-E8 monoclonal antibody (20 μg/mL, MBL), or a polyclonal MFG-E8 anti-serum (20 μg/mL). The IL-12, IL-23, TNF-α, and IL-10 concentrations of the culture supernatant were determined with ELISA. On day 7, BMDCs were co-cultured with PKH26 (Sigma-Aldrich)-labeled EG.7-OVA cells using a 12-well plate (ratio: 1:10), and phagocytosis was determined with flow cytometry. A similar experiment was performed using tumor cells treated for 30 minutes with an anti-MFG-E8 monoclonal antibody ([…]) before the co-culture. The effect of αvβ3 integrin-blocking antibody (RMV-7, product of Millipore) or Fc-receptor-blocking antibody (product of BD Bioscience) was also evaluated on the intake of tumor cells. Cross-presentation was tested using the following procedure. Specifically, naive CD4^+ T cells were isolated from the spleen of C57BL/6-Tg (ACTB-OVA) 916Jen/J mice using magnetic cell sorting (product of Miltenyi Biotech). The thus-isolated cells were added to the dendritic cells to which tumor cells had been loaded for 24 hours. Expression of IFN-γ within the cells was measured with flow cytometry.

Row | Molecule | tumor growth, anti-cancer agent alone [1] | tumor growth, anti-cancer agent alone (B16, melanoma cells) | further results
1 | O=c1[nH]cc(F)c(=O)[nH]1 [5FU, 5-FU] | tumor growth was significantly suppressed for 5 to 10 days after administration |  | 
2 | CCc1c2c(nc3ccc(OC(=O)N4CCC(N5CCCCC5)CC4)cc13)-c1cc3c(c(=O)n1C2)COC(=O)[C@]3(O)CC [CPT-11] | tumor growth was significantly suppressed for 5 to 10 days after administration |  | 
3 | Nc1ccn([C@@H]2O[C@H](CO)[C@@H](O)C2(F)F)c(=O)n1 [GEM, gemcitabine] | tumor growth was significantly suppressed for 5 to 10 days after administration |  | 
4 | COc1cccc2c1C(=O)c1c(O)c3c(c(O)c1C2=O)C[C@@](O)(C(=O)CO)C[C@@H]3O[C@H]1C[C@H](N)[C@H](O)[C@H](C)O1 [doxorubicin] |  | tumor growth was significantly suppressed for 5 to 10 days after administration | 
5 | COc1cc([C@@H]2c3cc4c(cc3[C@@H](O[C@@H]3O[C@@H]5CO[C@@H](C)O[C@H]5[C@H](O)[C@H]3O)[C@H]3COC(=O)[C@H]23)OCO4)cc(OC)c1O [etoposide] |  | tumor growth was significantly suppressed for 5 to 10 days after administration | 
6 | B1 |  |  | IL-10 production (dendritic cells): potentiation; OVA-specific IFN-γ production (dendritic cells): suppression; IL-10 production by dendritic cells (Dendritic cells (BMDCs)): enhanced secretion of IL-10
